Measurements: patent US20040082623A1, “Fmoc-l-leucine and derivatives thereof as ppar-gamma agonists” (priority 2003, published 2004)

Tests used:
PPARγ = molecular target: T1, PPARγ (Homo sapiens, UniProt P37231); test: Protease protection (partial trypsin digestion of 35S-PPARγ); assay type: binding; settings: compound 10^−4M, increasing trypsin
T1 construct: a construct containing the entire cDNA of the human PPARγ2 (hPPARγ2); host or cells: cell-free coupled transcription/translation system
T1 sequence (P37231 1-505): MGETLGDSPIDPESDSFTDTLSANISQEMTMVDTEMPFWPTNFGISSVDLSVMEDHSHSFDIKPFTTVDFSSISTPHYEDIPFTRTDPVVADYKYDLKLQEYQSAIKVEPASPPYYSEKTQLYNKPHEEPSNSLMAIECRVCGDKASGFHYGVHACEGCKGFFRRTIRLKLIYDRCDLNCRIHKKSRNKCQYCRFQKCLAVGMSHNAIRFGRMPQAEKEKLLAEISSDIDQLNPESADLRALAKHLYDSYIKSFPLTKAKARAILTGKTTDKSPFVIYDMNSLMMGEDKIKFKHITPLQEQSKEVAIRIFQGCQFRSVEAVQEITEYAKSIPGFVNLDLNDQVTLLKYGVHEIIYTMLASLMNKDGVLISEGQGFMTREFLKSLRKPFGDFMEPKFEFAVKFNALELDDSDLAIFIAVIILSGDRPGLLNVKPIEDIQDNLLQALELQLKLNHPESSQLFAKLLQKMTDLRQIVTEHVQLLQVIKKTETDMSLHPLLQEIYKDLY
Description: The pSG5-hPPARγ2 plasmid was used to synthesize ? ^35S-radiolabeled PPARγ in a coupled transcription/translation system according to the protocol of the manufacturer (Promega, Madison, Wis.). The transcription/translation reactions were subsequently aliquoted into 22.5 μl and 2,5 μl of phosphate buffered saline +/− compound were added. The mixture was separated into 4.5 μl aliquots and 0.5 μl of distilled water or distilled water-solubilized trypsin were added. The protease digestion were allowed to proceed for 10 min at 25° C. and terminated by the addition denaturing loading buffer. After separation of the digestion products in a gel SDS ? PAGE 12% acrylamide, the gel was fixed in 10% acetic acid (v/v) 30% ethanol (v/v) ? for 30 min, treated in Amplify™ (Amersham, Orsay, France) and dried. The radiolabeled digestion products were visualized by autoradiography.

hPPARγ LBD = molecular target: T2, hPPARγ LBD (Homo sapiens, UniProt P37231); test: ESI-mass spectrometry of ligand binding to PPARγ LBD
T2 construct: Human PPARγ (aa. 203 to 477 of PPARγ) was subcloned into the pET15b; His-tag (N); made in house
T2 sequence (P37231 203-477 isoform P37231-2): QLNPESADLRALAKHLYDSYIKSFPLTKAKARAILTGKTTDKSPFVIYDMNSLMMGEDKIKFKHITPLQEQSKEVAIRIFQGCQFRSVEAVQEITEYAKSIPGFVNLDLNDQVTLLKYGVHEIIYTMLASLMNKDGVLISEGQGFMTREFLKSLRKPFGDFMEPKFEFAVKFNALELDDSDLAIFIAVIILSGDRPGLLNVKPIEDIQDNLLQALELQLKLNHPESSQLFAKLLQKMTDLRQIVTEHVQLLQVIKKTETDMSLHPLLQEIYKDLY
Text: FIG. 5: Two molecules of F-L-Leu bind to a single PPARγ molecule. ESI-mass spectrometry analysis.
The p300Nt-GST, fusion protein was generated by cloning the N-terminal part of the p300 protein (a.a. 2 to 516) downstream of the glutathione-S-transferase (GST) protein in the pGex-T1 vector (Pharmacia, Orsay, France). The fusion proteins were then expressed in Escherichia coli and purified on a glutathione affinity matrix (Pharmacia). Human PPARγ (aa. 203 to 477 of PPARγ) was subcloned into the pET15b (Novagen, Madison, Wis.) expression vector. The his-tagPPARγ2DE203-477 proteins were produced as follow. The protein was purified using a metal chelate affinity column with an affinity column Co^2+ coupled agarose (High Trap chelatin, Pharmacia). The protein was eluted with 20 mM Tris-HCl, […], 130 mM imidazole and 1-2 propanediol 2.5% (pH 8.5). A second purification step was made by gel filtration (Superdex 200 16/60, Pharmacia). The protein was eluted with 20 mM Tris-HCl, 100 mM NaCl, 5 mM DTT and 1-2 propanediol 2,5% (pH 8.5). […]
Electrospray ionization (ESI) mass spectrometry of hPPARγ LBD (amino acid 203 t ? 477) was used to identify the specific binding of F-L-Leu with PPARγ (FIG. 5). […] The mass of the receptor wa ? determined after incubation by ESI-mass spectrometry.

3T3-L1 cells = test: Adipocyte differentiation of 3T3-L1 cells (Northern blot, Oil Red O); assay type: cell-based, murine
Description: Confluent 3T3-L1 cells were incubated with 2 μM insulin, 1 μM dexamethasone, and 0.25 mM isobuthyl methyl xanthine for two days. […] A: RNA was isolated from 3T3-L1 cells after different times of differentiation induction. Blots were hybridized with 36B4 (to control for RNA loading); LPL or aP2 cDNAs. B: Cells were stained with Oil Red O after 6 days. LPL: lipoprotein lipase.
3T3-L1 cells (ATCC, Rockville, Md.) were grown to confluence in medium ? (Dulbecco's modified Eagle's Medium with 10% fetal calf serum, 100 units/n ? penicillin, and 100 μg/ml streptomycin). Confluent cells were incubated in medium ? containing 2 μM insulin, 1 μM dexamethasone, and 0.25 mM isobuthyl meth ? xanthine for two days. Then, the cells were incubated in medium A in presence ? absence of PPARγ y agonist for 4 days, changing the medium every 2 day ? Adipogenesis was evaluated by analysis of the expression of adipocyte-specif ? markers and by staining of lipids with Oil Red O (Chawla and Lazar, 1994).
Adipogenesis was monitored by analysis of lipoprotein lipase (LPL) and aP2 mRNA levels as markers of adipocyte differentiation and by studying morphological changes associated with the differentiation process.

PPARγ2 = molecular target: T3, PPARγ2 (Homo sapiens, UniProt P37231); test: Transient transfection, PPARγ2 reporter in RK13 cells; assay type: cell-based; set-up: a construct containing the entire cDNA of the human PPARγ2 (hPPARγ2); expressed in transfected cells; host or cells: Hep G2, RK13 or CV1 cells
T3 sequence (P37231 1-505): T1 sequence (P37231 1-505)
Description: RK13 cells (A and D), CV1 cells (B) or Hep G2 cells (C) were co-transfected with an expression vector for PPARγ2 (0.1 μg/well), pGL3-(Jwt)3TKLuc reported construct (0.5 μg/well), and pCMV-βGal (0.5 μg/well), as a control of transfection efficiency (0.5 μg/well). They were then grown during 24 h in the presence or absence of indicated compound. Activation is expressed as relative luciferase activity/β ? galactosidase activity. Each point was performed in triplicate, and each figure i ? representative of four independent experiments.
The CV1, RK-13, and Hep G2 cell lines were obtained from ATCC (Rockville, Md.). Cells were maintained in Dulbecco's modified Eagle's minimal essential medium (DMEM) supplemented with 10% fetal calf serum (FCS), L-glutamine, and antibiotics. Transfections with chloramphenicol acetyltransferase (CAT) or luciferase (luc.) reporter constructs were carried out exactly as described previously (Schoonjans et al., 1996). The pGL3-(Jwt)3TKLuc and the pGL3-(Jwt)3TKCAT reporter constructs contain both three tandem repeats of the J site of the apolipoprotein A-II promoter cloned upstream of the herpes simplex virus thymidine kinase (TK) promoter and the luciferase or the CAT reporter genes respectively (Vu-Dac et al., 1995). The following expression vectors were used; pSG5-hPPARγ2, a construct containing the entire cDNA of the human PPARγ2 (hPPARγ2) (Fajas et al., 1997); pSG5-mPPARα (Isseman et al., 1993); and pCMV-βGal, as a control of transfection efficiency.

[1] = 3T3-L1, 10^−5 M, extent close to rosiglitazone 10^−7 M

Description for db/db mice: Intraperitoneal glucose tolerance test (IPGTT) in C57BL/6j (A) or db/db (B) mice 10 to 12 weeks old (n=8).
All mice were maintained in a temperature-controlled (25° C.) facility with a strict 12 h ? light/dark cycle and were given free access to food (standard mice chow; DO4, UAR ? France) and water.
C57B1/6J and db/db mice (8 per group) were obtained through the Janvier laboratorie ? (Laval-Le Genest, France).

With `CC(C)CC(NC(=O)OCC1c2ccccc2-c2ccccc21)C(=O)O` [F-L-Leu, N-(9-fluroroenylmethyloxycarbonyl)-L-Leucine] the “protection of PPARγ from trypsin digestion (conformation change)” value (PPARγ) was “produced a protease protection”, the PPARγ species detected (hPPARγ LBD; 1 equivalent of ligand per equivalent of PPARγ: unliganded, 1:1 and 1:2 complexes) was “three populations of PPARγ” and the “number of ligand molecules bound per PPARγ LBD” value (hPPARγ LBD; 8 equivalents of ligand per 1 equivalent of PPARγ, only complex detected) was 2. The “LPL mRNA levels” value (3T3-L1 cells; [1]) was “significantly stimulated”, the “aP2 mRNA levels” value (3T3-L1 cells; [1]) was “significantly stimulated” and the “neutral lipid accumulation (Oil Red O staining)” value (3T3-L1 cells; 3T3-L1, 6 days, F-L-Leu 10^−5 M, rosiglitazone 10^−7 M) was “capable of inducing neutral lipid accumulation”. For the same compound, the “liver weight relative to control or rosiglitazone-treated mice” value (db/db mice; data not shown) was “tendency to diminution of the liver weight”, the “insulin sensitivity compared with an equivalent dose of rosiglitazone” value (db/db mice; db/db mice, 1 mg/kg/day as printed) was “improved insulin sensitivity more dramatically” and the “maximal glycemia in IPGTT” value (db/db mice; db/db, 10 mg/kg/day i.p., 7 days, DMSO control 500) was 420 mg/dL. For the same compound, the “time of maximal glucose level after glucose injection” value (db/db mice; db/db, 10 mg/kg/day, 7 days) was 20 min, the “time to decrease to normal (100 mg/dl) glucose values” (db/db mice; db/db, 10 mg/kg/day, 7 days) was no more than 120 min and the “fasting serum insulin levels (mean)” value (db/db mice; db/db, 7 days treatment, DMSO group 180) was 70 μUI/mL. The “concentration giving maximal PPARγ activation” value (PPARγ2; RK13 cells) was 10^−5 M, the “modification of PPARγ activity when added to a saturating concentration of rosiglitazone” value (PPARγ2; RK13 cells, 10^−5 M added) was “No significant modification” and the “concentration of optimal PPARγ activity / activation” value (PPARγ2; rabbit kidney RK13 cells) was 10^−5 M.
